Experimental data taken from ChEMBL document CHEMBL1152087, “Inhibition of mevalonate 5-pyrophosphate decarboxylase by a proline-containing transition state analog” (Bioorg Med Chem Lett, 1996).

Experiments:
[1] = target: T1, Diphosphomevalonate decarboxylase (Homo sapiens, UniProt P53602); test: Compound was evaluated for its inhibitory activity against Mevalonate 5-pyrophosphate decarboxylase
T1 sequence (P53602 whole entry): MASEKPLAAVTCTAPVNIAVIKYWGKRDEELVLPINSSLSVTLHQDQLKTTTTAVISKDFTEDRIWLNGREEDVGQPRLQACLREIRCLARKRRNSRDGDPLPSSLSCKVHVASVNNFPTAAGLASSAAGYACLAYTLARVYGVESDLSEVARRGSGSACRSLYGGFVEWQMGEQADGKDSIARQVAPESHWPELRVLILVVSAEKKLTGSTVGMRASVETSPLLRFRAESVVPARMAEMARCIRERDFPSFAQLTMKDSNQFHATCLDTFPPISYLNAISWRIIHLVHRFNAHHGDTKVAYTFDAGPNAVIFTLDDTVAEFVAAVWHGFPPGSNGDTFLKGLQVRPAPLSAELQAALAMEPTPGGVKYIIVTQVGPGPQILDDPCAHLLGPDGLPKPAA

[2] = target: T1, Diphosphomevalonate decarboxylase; test: Compound was evaluated for its inhibitory activity against MevPP decarboxylase

IC50 [1] [nM] | IC50 [2] [nM] | Compound
150 |  | O=C(O)CSCCOP(=O)(O)OP(=O)(O)O
 | 300 | CN(CC(=O)O)C(=O)COP(=O)(O)OP(=O)(O)O
